Source: ChEMBL document CHEMBL1909046, “DrugMatrix in vitro pharmacology data”

Columns and labels:
[1] = biological target: Beta-3 adrenergic receptor (Homo sapiens, UniProt P13945); assay: DRUGMATRIX: Adrenergic beta3 radioligand binding (ligand: [125I] Cyanopindolol); assay type: cell membranes, HEK293, Membrane; details: hek293; Not Active = under 50% inhibition at 10 µM
Endothelin-1 receptor = biological target: T1, Endothelin-1 receptor (Homo sapiens, UniProt P25101); assay type: cell membranes, Membrane; details: cho-k1; also: in other assays of this panel Not Active means under 50% inhibition at 10 µM
T1 sequence (P25101 whole entry): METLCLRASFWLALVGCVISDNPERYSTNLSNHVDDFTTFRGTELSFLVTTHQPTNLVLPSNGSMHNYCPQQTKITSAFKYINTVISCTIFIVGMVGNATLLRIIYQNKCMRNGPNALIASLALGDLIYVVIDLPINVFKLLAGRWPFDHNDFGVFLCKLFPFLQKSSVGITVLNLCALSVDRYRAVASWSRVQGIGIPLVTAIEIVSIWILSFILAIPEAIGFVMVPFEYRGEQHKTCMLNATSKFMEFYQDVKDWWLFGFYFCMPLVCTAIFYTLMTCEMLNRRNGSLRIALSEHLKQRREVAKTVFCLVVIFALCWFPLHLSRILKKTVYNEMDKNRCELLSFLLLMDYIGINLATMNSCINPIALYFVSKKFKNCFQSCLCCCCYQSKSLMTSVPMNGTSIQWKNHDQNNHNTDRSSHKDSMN

[2] = DRUGMATRIX: Glutamate, NMDA, Phencyclidine radioligand binding (ligand: [3H] TCP); assay type: cell membranes, Rattus norvegicus, Wistar, Cerebral cortex, Membrane; details: Not Active = under 50% inhibition at 10 µM
[3] = DRUGMATRIX: Phorbol Ester radioligand binding (ligand: [3H] PDBu); assay type: cell membranes, Mus musculus, ICR, Brain, Membrane; details: Not Active = under 50% inhibition at 10 µM
[4] = DRUGMATRIX: Platelet-Derived Growth Factor (PDGF) radioligand binding (ligand: [125I] PDGF); assay type: cell-based; details: nih3t3; Not Active = under 50% inhibition at 10 µM
Interstitial collagenase = biological target: T2, Interstitial collagenase (Homo sapiens, UniProt P03956); assay: biochemical; assay type: tissue-based, Rheumatoid synovial fibroblasts;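 also: MMP-1 enzyme inhibition assay using a peptide substrate; in other assays of this panel Not Active means under 50% inhibition at 10 µM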
T2 sequence (P03956 whole entry): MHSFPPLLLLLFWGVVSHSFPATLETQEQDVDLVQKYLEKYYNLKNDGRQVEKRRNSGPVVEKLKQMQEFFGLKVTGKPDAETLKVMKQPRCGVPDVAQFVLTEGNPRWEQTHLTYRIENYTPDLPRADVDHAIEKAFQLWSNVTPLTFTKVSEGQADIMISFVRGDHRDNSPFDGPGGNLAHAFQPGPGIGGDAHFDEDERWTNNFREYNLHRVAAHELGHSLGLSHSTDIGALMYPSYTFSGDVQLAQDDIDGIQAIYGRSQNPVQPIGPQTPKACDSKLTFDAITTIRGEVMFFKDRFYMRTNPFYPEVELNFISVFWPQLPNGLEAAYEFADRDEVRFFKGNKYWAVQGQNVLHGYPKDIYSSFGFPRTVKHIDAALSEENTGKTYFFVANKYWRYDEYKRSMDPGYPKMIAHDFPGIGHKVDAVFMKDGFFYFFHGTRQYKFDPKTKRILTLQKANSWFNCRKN

Estrogen receptor = biological target: T3, Estrogen receptor (Homo sapiens, UniProt P03372); details: sf9; also: in other assays of this panel Not Active means under 50% inhibition at 10 µM
T3 sequence (P03372 whole entry): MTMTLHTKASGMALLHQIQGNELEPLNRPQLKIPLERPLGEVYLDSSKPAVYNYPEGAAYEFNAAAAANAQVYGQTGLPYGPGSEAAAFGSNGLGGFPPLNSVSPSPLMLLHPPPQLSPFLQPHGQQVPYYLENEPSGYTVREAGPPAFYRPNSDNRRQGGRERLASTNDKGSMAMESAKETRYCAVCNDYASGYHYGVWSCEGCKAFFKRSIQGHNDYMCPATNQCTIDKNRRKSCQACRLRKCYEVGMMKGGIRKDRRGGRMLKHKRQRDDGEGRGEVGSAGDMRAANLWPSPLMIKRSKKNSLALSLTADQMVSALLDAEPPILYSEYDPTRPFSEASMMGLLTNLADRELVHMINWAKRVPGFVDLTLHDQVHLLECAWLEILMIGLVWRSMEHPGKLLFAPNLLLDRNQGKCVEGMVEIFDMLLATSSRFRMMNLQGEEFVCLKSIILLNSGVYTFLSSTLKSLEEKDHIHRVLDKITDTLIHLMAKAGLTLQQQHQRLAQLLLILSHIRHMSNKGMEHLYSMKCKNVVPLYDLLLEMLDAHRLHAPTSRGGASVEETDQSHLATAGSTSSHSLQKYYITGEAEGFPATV

Sequence of Beta-3 adrenergic receptor (P13945 whole entry): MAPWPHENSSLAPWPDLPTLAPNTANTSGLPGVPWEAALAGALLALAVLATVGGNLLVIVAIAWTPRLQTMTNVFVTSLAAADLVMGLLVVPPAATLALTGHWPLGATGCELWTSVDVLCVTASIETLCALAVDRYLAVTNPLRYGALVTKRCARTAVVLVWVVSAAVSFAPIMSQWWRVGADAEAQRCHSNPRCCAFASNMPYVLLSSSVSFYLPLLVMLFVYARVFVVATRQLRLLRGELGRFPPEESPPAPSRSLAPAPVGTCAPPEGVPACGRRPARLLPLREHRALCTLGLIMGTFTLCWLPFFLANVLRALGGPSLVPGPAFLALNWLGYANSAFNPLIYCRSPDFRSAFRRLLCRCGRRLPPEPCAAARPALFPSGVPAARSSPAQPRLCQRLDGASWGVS

## CC(=O)O[C@H]1C(=O)[C@@]2(C)[C@H]([C@H](OC(=O)c3ccccc3)[C@]3(O)C[C@H](OC(=O)[C@H](O)[C@@H](NC(=O)c4ccccc4)c4ccccc4)C(C)=C1C3(C)C)[C@]1(OC(C)=O)CO[C@@H]1C[C@@H]2O [PACLITAXEL]
[1]
  IC50: Not Active
Endothelin-1 receptor
  IC50: Not Active
[2]
  IC50: Not Active
  Ki: Not Active
[3]
  IC50: Not Active
  Ki: Not Active
[4]
  IC50: Not Active
  Ki: Not Active
Interstitial collagenase
  IC50: Not Active
Estrogen receptor
  IC50: Not Active

## C[n+]1ccc(-c2cc[n+](C)cc2)cc1.[Cl-].[Cl-] [PARAQUAT DICHLORIDE]
[1]
  IC50: Not Active
Endothelin-1 receptor
  IC50: Not Active
[2]
  IC50: Not Active
  Ki: Not Active
[3]
  IC50: Not Active
  Ki: Not Active
[4]
  IC50: Not Active
  Ki: Not Active
Interstitial collagenase
  IC50: Not Active
Estrogen receptor
  IC50: Not Active

## C[n+]1ccccc1/C=N/O.[Cl-] [PRALIDOXIME CHLORIDE]
[1]
  IC50: Not Active
Endothelin-1 receptor
  IC50: Not Active
[2]
  IC50: Not Active
  Ki: Not Active
[3]
  IC50: Not Active
  Ki: Not Active
[4]
  IC50: Not Active
  Ki: Not Active
Interstitial collagenase
  IC50: Not Active
Estrogen receptor
  IC50: Not Active

## COc1cc2nc(N3CCN(C(=O)c4ccco4)CC3)nc(N)c2cc1OC [PRAZOSIN]
[1]
  IC50: Not Active
Endothelin-1 receptor
  IC50: Not Active
[2]
  IC50: Not Active
  Ki: Not Active
[3]
  IC50: Not Active
  Ki: Not Active
[4]
  IC50: Not Active
  Ki: Not Active
Interstitial collagenase; read-out: IC50
  IC50: 4.04 µM
Estrogen receptor
  IC50: Not Active

## C[C@]12C=CC(=O)C=C1CC[C@@H]1[C@@H]2[C@@H](O)C[C@@]2(C)[C@H]1CC[C@]2(O)C(=O)CO [PREDNISOLONE]
[1]
  IC50: Not Active
Endothelin-1 receptor
  IC50: Not Active
[2]
  IC50: Not Active
  Ki: Not Active
[3]
  IC50: Not Active
  Ki: Not Active
[4]
  IC50: Not Active
  Ki: Not Active
Interstitial collagenase
  IC50: Not Active
Estrogen receptor
  IC50: Not Active

## CC(=O)[C@H]1[C@H](C#N)C[C@H]2[C@@H]3CC=C4C[C@@H](O)CC[C@]4(C)[C@H]3CC[C@@]21C [PREGNENOLONE CARBONITRILE]
[1]
  IC50: Not Active
Endothelin-1 receptor
  IC50: Not Active
[2]
  IC50: Not Active
  Ki: Not Active
[3]
  IC50: Not Active
  Ki: Not Active
[4]
  IC50: Not Active
  Ki: Not Active
Interstitial collagenase
  IC50: Not Active
Estrogen receptor
  IC50: Not Active
